{
  "source": "paper PMC5218480",
  "about": "(PLoS ONE, 2017)",
  "tested_on": "MV-4-11 cells",
  "assay": "Gene expression microarray analysis (Affymetrix PrimeView) and GSEA",
  "assay_type": "cell-based, human",
  "design": "RFU PODN (11730768_x_at) / Fold change /veh PODN (11730768_x_at) / RFU LINC00158 (11744669_a_at) / Fold change /veh LINC00158 (11744669_a_at) / RFU DUSP10 (11751237_a_at) / Fold change /veh DUSP10 (11751237_a_at) / RFU ID3 (11757404_x_at) / Fold change /veh ID3 (11757404_x_at) / RFU PLEKHG5 (11737974_s_at) / Fold change /veh PLEKHG5 (11737974_s_at) / RFU LRRC4B (11730491_at) / Fold change /veh LRRC4B (11730491_at) / RFU GIMAP4 (11747438_a_at) / Fold change /veh GIMAP4 (11747438_a_at) / RFU KRT8 (11758183_x_at) / Fold change /veh KRT8 (11758183_x_at) / RFU CNN1 (11734310_a_at) / Fold change /veh CNN1 (11734310_a_at) / RFU VPS37D (11726825_at) / Fold change /veh VPS37D (11726825_at) / RFU C10orf10 (11716522_x_at) / Fold change /veh C10orf10 (11716522_x_at) / RFU KIR2DL2 /// KIR2DL4 /// KIR2DL5A /// KIR2DL5B /// KIR2DS1 /// KIR2DS2 /// KIR2DS3 /// KIR2DS4 /// KIR3DL3 /// KIR3DL3 /// KIR3DS1 (11738374_at) / Fold change /veh KIR2DL2 /// KIR2DL4 /// KIR2DL5A /// KIR2DL5B /// KIR2DS1 /// KIR2DS2 /// KIR2DS3 /// KIR2DS4 /// KIR3DL3 /// KIR3DL3 /// KIR3DS1 (11738374_at) / RFU C1QL1 (11718748_at) / Fold change /veh C1QL1 (11718748_at) / RFU TMPRSS4 (11747572_a_at) / Fold change /veh TMPRSS4 (11747572_a_at) / RFU HAMP (11756126_x_at) / Fold change /veh HAMP (11756126_x_at) / RFU RNFT2 (11725882_a_at) / Fold change /veh RNFT2 (11725882_a_at) / RFU NR4A2 (11747474_a_at) / Fold change /veh NR4A2 (11747474_a_at) / RFU ABCC12 (11746883_a_at) / Fold change /veh ABCC12 (11746883_a_at) / RFU TMEM136 (11760407_x_at) / Fold change /veh TMEM136 (11760407_x_at) / RFU CLDN22 /// WWC2 (11732394_at) / Fold change /veh CLDN22 /// WWC2 (11732394_at) / RFU HLA-DPB1 (11760878_x_at) / Fold change /veh HLA-DPB1 (11760878_x_at) / RFU SPINT1 (11716480_a_at) / Fold change /veh SPINT1 (11716480_a_at) / RFU GAP43 (11754022_s_at) / Fold change /veh GAP43 (11754022_s_at) / RFU A4GNT (11735810_at) / Fold change /veh A4GNT (11735810_at) / RFU PRB3 (11715151_x_at) / Fold change /veh PRB3 (11715151_x_at) / RFU TUBB4B (11761932_at) / Fold change /veh TUBB4B (11761932_at) / RFU CAPN14 (11732068_a_at) / Fold change /veh CAPN14 (11732068_a_at) / RFU TMCC2 (11721928_a_at) / Fold change /veh TMCC2 (11721928_a_at) / RFU IRGQ (11745062_a_at) / Fold change /veh IRGQ (11745062_a_at) / RFU FAM174B (11720279_a_at) / Fold change /veh FAM174B (11720279_a_at) / RFU TMPRSS4 (11748680_a_at) / Fold change /veh TMPRSS4 (11748680_a_at) / RFU FAM212B (11763350_a_at) / Fold change /veh FAM212B (11763350_a_at) / RFU PLEKHG5 (11743358_a_at) / Fold change /veh PLEKHG5 (11743358_a_at) / RFU ZSCAN30 (11745921_a_at) / Fold change /veh ZSCAN30 (11745921_a_at) / RFU CMKLR1 (11741424_a_at) / Fold change /veh CMKLR1 (11741424_a_at) / RFU LOC101060620 /// MAPK8IP1 (11723275_at) / Fold change /veh LOC101060620 /// MAPK8IP1 (11723275_at) / RFU SPTSSB (11747773_x_at) / Fold change /veh SPTSSB (11747773_x_at) / RFU PRSS12 (11739890_at) / Fold change /veh PRSS12 (11739890_at) / RFU BIN1 (11741810_x_at) / Fold change /veh BIN1 (11741810_x_at) / RFU WNT11 (11732464_a_at) / Fold change /veh WNT11 (11732464_a_at) / RFU C10orf10 (11716521_a_at) / Fold change /veh C10orf10 (11716521_a_at) / RFU C5orf56 (11738089_at) / Fold change /veh C5orf56 (11738089_at) / RFU CYB561 (11721691_x_at) / Fold change /veh CYB561 (11721691_x_at) / RFU ANKRD19P (11752326_a_at) / Fold change /veh ANKRD19P (11752326_a_at) / RFU OR2T12 /// OR2T33 /// OR2T8 (11738714_s_at) / Fold change /veh OR2T12 /// OR2T33 /// OR2T8 (11738714_s_at) / RFU VCAN (11748164_a_at) / Fold change /veh VCAN (11748164_a_at) / RFU JSRP1 (11732532_at) / Fold change /veh JSRP1 (11732532_at) / RFU KRTAP10-11 (11738290_x_at) / Fold change /veh KRTAP10-11 (11738290_x_at) / RFU MYO3A (11730013_a_at) / Fold change /veh MYO3A (11730013_a_at) / RFU EBF3 (11725865_a_at) / Fold change /veh EBF3 (11725865_a_at) / RFU CAMK2N1 (11719241_x_at) / Fold change /veh CAMK2N1 (11719241_x_at) / RFU C5orf56 (11738088_a_at) / Fold change /veh C5orf56 (11738088_a_at) / RFU OLFML3 (11715873_a_at) / Fold change /veh OLFML3 (11715873_a_at) / RFU LOC100653217 /// NTM (11731650_a_at) / Fold change /veh LOC100653217 /// NTM (11731650_a_at) / RFU MAPK11 (11762145_a_at) / Fold change /veh MAPK11 (11762145_a_at) / RFU FIZ1 (11724087_x_at) / Fold change /veh FIZ1 (11724087_x_at) / RFU OASL (11726364_x_at) / Fold change /veh OASL (11726364_x_at) / RFU SOX15 (11748057_x_at) / Fold change /veh SOX15 (11748057_x_at) / RFU CD79A (11719716_a_at) / Fold change /veh CD79A (11719716_a_at) / RFU HIST1H1D (11736915_at) / Fold change /veh HIST1H1D (11736915_at) / RFU CASKIN2 (11723855_a_at) / Fold change /veh CASKIN2 (11723855_a_at) / RFU LOC730098 (11760151_x_at) / Fold change /veh LOC730098 (11760151_x_at) / RFU OR4N2 (11742367_at) / Fold change /veh OR4N2 (11742367_at) / RFU PRRT2 (11749266_a_at) / Fold change /veh PRRT2 (11749266_a_at) / RFU SNX32 (11753110_a_at) / Fold change /veh SNX32 (11753110_a_at) / RFU CDHR5 (11726645_a_at) / Fold change /veh CDHR5 (11726645_a_at) / RFU RCAN1 (11760418_a_at) / Fold change /veh RCAN1 (11760418_a_at) / RFU FAM167A (11723789_a_at) / Fold change /veh FAM167A (11723789_a_at) / RFU FAM26E (11764081_at) / Fold change /veh FAM26E (11764081_at) / RFU ISYNA1 (11749810_s_at) / Fold change /veh ISYNA1 (11749810_s_at) / RFU ACY1 (11761880_at) / Fold change /veh ACY1 (11761880_at) / RFU 11764098_at / Fold change /veh 11764098_at / RFU SAMD14 (11745864_x_at) / Fold change /veh SAMD14 (11745864_x_at) / RFU NPB (11741838_a_at) / Fold change /veh NPB (11741838_a_at) / RFU TMPRSS6 (11731388_a_at) / Fold change /veh TMPRSS6 (11731388_a_at) / RFU KRTAP10-2 (11738614_at) / Fold change /veh KRTAP10-2 (11738614_at) / RFU ARHGAP8 /// PRR5-ARHGAP8 (11727945_x_at) / Fold change /veh ARHGAP8 /// PRR5-ARHGAP8 (11727945_x_at) / RFU KRTAP5-7 /// NADSYN1 (11734609_at) / Fold change /veh KRTAP5-7 /// NADSYN1 (11734609_at) / RFU RASL12 (11751679_a_at) / Fold change /veh RASL12 (11751679_a_at) / RFU CDKN2B (11736163_a_at) / Fold change /veh CDKN2B (11736163_a_at) / RFU PRF1 (11729649_at) / Fold change /veh PRF1 (11729649_at) / RFU, ZNF638 /// ZNF638-IT1 / Fold change vs veh, ZNF638 /// ZNF638-IT1 / RFU, PANK3 / Fold change vs veh, PANK3 / RFU, SH3YL1 / Fold change vs veh, SH3YL1 / RFU, ZEB2 / Fold change vs veh, ZEB2 / RFU, NRIP1 / Fold change vs veh, NRIP1 / RFU, PTTG1IP / Fold change vs veh, PTTG1IP / RFU, CAPN2 / Fold change vs veh, CAPN2 / RFU, MED14 / Fold change vs veh, MED14 / RFU, SNORA58 / Fold change vs veh, SNORA58 / RFU, C1orf63 / Fold change vs veh, C1orf63 / RFU, LRRFIP1 / Fold change vs veh, LRRFIP1 / RFU, NDUFAF7 / Fold change vs veh, NDUFAF7 / RFU, SLC12A2 / Fold change vs veh, SLC12A2 / RFU, IBTK / Fold change vs veh, IBTK / RFU, ESF1 / Fold change vs veh, ESF1 / Fold change vs veh, TMEM50B / RFU, TAOK1 / Fold change vs veh, TAOK1 / RFU, ACBD3 / Fold change vs veh, ACBD3 / RFU, TMA16 / Fold change vs veh, TMA16 / RFU, RWDD3 / Fold change vs veh, RWDD3 / RFU, BCAT1 / Fold change vs veh, BCAT1 / RFU, EDEM3 / Fold change vs veh, EDEM3 / RFU, TMEM33 / Fold change vs veh, TMEM33 / RFU, WDR75 / Fold change vs veh, WDR75 / RFU, AHCTF1 / Fold change vs veh, AHCTF1 / RFU, TFRC / Fold change vs veh, TFRC / RFU, ZDHHC17 / Fold change vs veh, ZDHHC17 / RFU, NOM1 / Fold change vs veh, NOM1 / RFU, ARL8B / Fold change vs veh, ARL8B / RFU, ZBTB11 / Fold change vs veh, ZBTB11 / RFU, TAMM41 / Fold change vs veh, TAMM41 / RFU, KIAA1704 /// LOC100996395 / Fold change vs veh, KIAA1704 /// LOC100996395 / RFU, ING1 / Fold change vs veh, ING1 / RFU, TRMT61B / Fold change vs veh, TRMT61B / RFU, FUBP3 / Fold change vs veh, FUBP3 / RFU, TP53 / Fold change vs veh, TP53 / RFU, TNKS2 / Fold change vs veh, TNKS2 / RFU, ZFP14 / Fold change vs veh, ZFP14 / RFU, ACTR2 / Fold change vs veh, ACTR2 / RFU, PPP3R1 / Fold change vs veh, PPP3R1 / RFU, PIK3R1 / Fold change vs veh, PIK3R1 / RFU, HNRNPA1 / Fold change vs veh, HNRNPA1 / RFU, RNF170 / Fold change vs veh, RNF170 / RFU, ZNF28 / Fold change vs veh, ZNF28 / RFU, RNGTT / Fold change vs veh, RNGTT / RFU, OGT / Fold change vs veh, OGT / RFU, BRD1 / Fold change vs veh, BRD1 / RFU, MARS / Fold change vs veh, MARS / RFU, ZNF655 / Fold change vs veh, ZNF655 / RFU, FAHD1 / Fold change vs veh, FAHD1 / RFU, BDP1 / Fold change vs veh, BDP1 / RFU, LRRCC1 / Fold change vs veh, LRRCC1 / RFU, ARID1A / Fold change vs veh, ARID1A / RFU, ZNF146 / Fold change vs veh, ZNF146 / RFU, ZNF330 / Fold change vs veh, ZNF330 / RFU, GPN3 / Fold change vs veh, GPN3 / RFU, C9orf123 / Fold change vs veh, C9orf123 / RFU, N4BP2L2 / Fold change vs veh, N4BP2L2 / RFU, ARFIP1 / Fold change vs veh, ARFIP1 / RFU, FAM179B / Fold change vs veh, FAM179B / RFU, BCL10 / Fold change vs veh, BCL10 / RFU, UHRF1BP1L / Fold change vs veh, UHRF1BP1L / RFU, BET1 / Fold change vs veh, BET1 / RFU, CNOT2 / Fold change vs veh, CNOT2 / RFU, ZNF268 / Fold change vs veh, ZNF268 / Fold change vs veh, ZNF507 / RFU, DGCR2 / Fold change vs veh, DGCR2 / RFU, WDSUB1 / Fold change vs veh, WDSUB1 / Fold change vs veh, HSP90B1 /// MIR3652 / RFU, ADSS / Fold change vs veh, ADSS / RFU, GK / Fold change vs veh, GK / RFU, ZNF148 / Fold change vs veh, ZNF148 / RFU, TAF9 / Fold change vs veh, TAF9 / RFU, SLC1A5 / Fold change vs veh, SLC1A5 / RFU, SLMO2 / Fold change vs veh, SLMO2 / RFU, ABCC4 / Fold change vs veh, ABCC4 / RFU, LOC101060439 /// RAP1B / Fold change vs veh, LOC101060439 /// RAP1B / RFU, RFX7 / Fold change vs veh, RFX7 / RFU, GTPBP10 / Fold change vs veh, GTPBP10 / RFU, CNEP1R1 / Fold change vs veh, CNEP1R1 / RFU, BIVM-ERCC5 /// ERCC5 / Fold change vs veh, BIVM-ERCC5 /// ERCC5 / RFU, ILF3 / Fold change vs veh, ILF3 / RFU 11762660_at / Fold change /veh 11762660_at / RFU VCAN (11757783_s_at) / Fold change /veh VCAN (11757783_s_at) / RFU DDX43 (11728927_at) / Fold change /veh DDX43 (11728927_at) / RFU KRT8 (11758188_x_at) / Fold change /veh KRT8 (11758188_x_at) / RFU NKD1 (11759106_at) / Fold change /veh NKD1 (11759106_at) / RFU SRD5A1 (11742802_a_at) / Fold change /veh SRD5A1 (11742802_a_at) / RFU TPSAB1 /// TPSB2 (11721975_s_at) / Fold change /veh TPSAB1 /// TPSB2 (11721975_s_at) / RFU GSTM3 (11746129_a_at) / Fold change /veh GSTM3 (11746129_a_at) / RFU IL23R (11737362_x_at) / Fold change /veh IL23R (11737362_x_at) / RFU TMEM51 (11727254_a_at) / Fold change /veh TMEM51 (11727254_a_at) / RFU PIWIL2 (11732686_x_at) / Fold change /veh PIWIL2 (11732686_x_at) / RFU ORM1 (11744905_x_at) / Fold change /veh ORM1 (11744905_x_at) / RFU CCDC152 (11743942_at) / Fold change /veh CCDC152 (11743942_at) / RFU ECM1 (11717891_a_at) / Fold change /veh ECM1 (11717891_a_at) / RFU IL23R (11748794_a_at) / Fold change /veh IL23R (11748794_a_at) / RFU TNFAIP8L3 (11732012_x_at) / Fold change /veh TNFAIP8L3 (11732012_x_at) / RFU MBOAT4 (11741988_at) / Fold change /veh MBOAT4 (11741988_at) / RFU 11764193_at / Fold change /veh 11764193_at / RFU TMEM53 (11763286_at) / Fold change /veh TMEM53 (11763286_at) / RFU MAGEB2 (11727129_at) / Fold change /veh MAGEB2 (11727129_at) / RFU TMEM200A (11744735_a_at) / Fold change /veh TMEM200A (11744735_a_at) / RFU CCDC152 (11751479_a_at) / Fold change /veh CCDC152 (11751479_a_at) / RFU FAM211A (11726209_a_at) / Fold change /veh FAM211A (11726209_a_at) / RFU RGS16 (11746705_a_at) / Fold change /veh RGS16 (11746705_a_at) / RFU VCAN (11755009_s_at) / Fold change /veh VCAN (11755009_s_at) / RFU RHOB (11743442_s_at) / Fold change /veh RHOB (11743442_s_at) / RFU RGS16 (11720943_a_at) / Fold change /veh RGS16 (11720943_a_at) / RFU RGS16 (11720944_at) / Fold change /veh RGS16 (11720944_at) / RFU, VPS4B / Fold change vs veh, VPS4B / RFU, CREB1 / Fold change vs veh, CREB1 / RFU, DNAJC13 / Fold change vs veh, DNAJC13 / RFU, GNAQ / Fold change vs veh, GNAQ / RFU, CDK5R1 / Fold change vs veh, CDK5R1 / RFU, ZRANB3 / Fold change vs veh, ZRANB3 / RFU, CUL4A / Fold change vs veh, CUL4A / RFU, CCNY / Fold change vs veh, CCNY / RFU, UFL1 / Fold change vs veh, UFL1 / RFU, COG3 / Fold change vs veh, COG3 / RFU, DIAPH2 / Fold change vs veh, DIAPH2 / RFU, SKA2 / Fold change vs veh, SKA2 / RFU, AFF3 / Fold change vs veh, AFF3 / RFU, LMF1 / Fold change vs veh, LMF1 / RFU, IPO11 / Fold change vs veh, IPO11 / RFU, DFFB / Fold change vs veh, DFFB / RFU, FOXP1 / Fold change vs veh, FOXP1 / RFU, CARD8 / Fold change vs veh, CARD8 / RFU, STRN3 / Fold change vs veh, STRN3 / RFU, ADK / Fold change vs veh, ADK / RFU, RASSF2 / Fold change vs veh, RASSF2 / RFU, WIPF1 / Fold change vs veh, WIPF1 / RFU, LARP1B / Fold change vs veh, LARP1B / RFU, RASA1 / Fold change vs veh, RASA1 / RFU, RB1 / Fold change vs veh, RB1 / RFU, PPFIA1 / Fold change vs veh, PPFIA1 / RFU, MAT2A / Fold change vs veh, MAT2A / RFU, CCT5 / Fold change vs veh, CCT5 / RFU, WDR92 / Fold change vs veh, WDR92 / RFU, CUX1 / Fold change vs veh, CUX1 / RFU, TTC7A / Fold change vs veh, TTC7A / RFU, TMEM135 / Fold change vs veh, TMEM135 / RFU, DEPTOR / Fold change vs veh, DEPTOR / RFU, CPM / Fold change vs veh, CPM / RFU, DNAJB6 / Fold change vs veh, DNAJB6 / RFU, CACNA2D3 / Fold change vs veh, CACNA2D3 / RFU, DTX4 / Fold change vs veh, DTX4 / RFU, TFCP2 / Fold change vs veh, TFCP2 / RFU, GMCL1 /// GMCL1P1 / Fold change vs veh, GMCL1 /// GMCL1P1 / RFU, AEBP2 / Fold change vs veh, AEBP2 / RFU, SNHG1 /// SNORD22 /// SNORD25 /// SNORD26 /// SNORD27 /// SNORD28 /// SNORD29 /// SNORD31 / Fold change vs veh, SNHG1 /// SNORD22 /// SNORD25 /// SNORD26 /// SNORD27 /// SNORD28 /// SNORD29 /// SNORD31 / Fold change (Aza/veh), C12orf56 (ProbeSet 11735607_a_at) / Fold change (ACY-1035/veh), C12orf56 (ProbeSet 11735607_a_at) / Fold change (Aza/veh), FGFR1OP (ProbeSet 11751329_s_at) / Fold change (ACY-1035/veh), FGFR1OP (ProbeSet 11751329_s_at) / Fold change (Aza/veh), VPS36 (ProbeSet 11739960_a_at) / Fold change (ACY-1035/veh), VPS36 (ProbeSet 11739960_a_at) / RFU SYPL1 (11715823_x_at) / Fold change /veh SYPL1 (11715823_x_at) / RFU IGFBP7 (11715501_s_at) / Fold change /veh IGFBP7 (11715501_s_at) / RFU REEP3 (11722064_at) / Fold change /veh REEP3 (11722064_at) / RFU IGLL1 (11728026_x_at) / Fold change /veh IGLL1 (11728026_x_at): dose or concentration left out as unconfirmed",
  "details": "ProbeSet 11725901_x_at; LIST B",
  "data": [
    {"smiles": "Nc1ncn([C@@H]2O[C@H](CO)[C@@H](O)[C@H]2O)c(=O)n1", "note": "[azacitidine]", "values": [
      {"measurement": "Fold change vs veh, RWDD3", "result": 0.96}
    ]}
  ]
}
